{"source": "patent US12618095B2", "about": "“Medium for Bacillus cereus group detection” (SHIMADZU DIAGNOSTICS CORPORATION, priority 2020, dated 2026)", "key": {"B. cereus": {"test_system": "B. cereus", "experiment": "Test Example 9: concentration of amphotericin B"}, "B. thuringiensis": {"test_system": "B. thuringiensis", "experiment": "Test Example 9: concentration of amphotericin B", "type": "cell-based", "conditions": "NBRC101235"}}, "data": [{"smiles": "C[C@@H]1[C@H](O)[C@@H](C)/C=C/C=C/C=C/C=C/C=C/C=C/C=C/[C@H](O[C@@H]2O[C@H](C)[C@@H](O)[C@H](N)[C@@H]2O)C[C@@H]2O[C@](O)(C[C@@H](O)C[C@@H](O)[C@H](O)CC[C@@H](O)C[C@@H](O)CC(=O)O[C@H]1C)C[C@H](O)[C@H]2C(=O)O", "note": "[Amphotericin B]", "values": [{"measurement": "Number of colonies", "setting": "B. cereus; ATCC11778, Amphotericin B 0.1 mg, 24 hours, 10^2 cfu/mL", "value": 37}, {"measurement": "Number of colonies", "setting": "B. cereus; ATCC11778, Amphotericin B 0.1 mg, 24 hours, 10^3 cfu/mL", "value": "+"}, {"measurement": "Number of colonies", "setting": "B. cereus; ATCC11778, Amphotericin B 0.1 mg, 24 hours, 10^4 cfu/mL", "value": "+"}, {"measurement": "Number of colonies", "setting": "B. cereus; ATCC11778, Amphotericin B 0.1 mg, 24 hours, 10^5 cfu/mL", "value": "+"}, {"measurement": "Number of colonies", "setting": "B. cereus; ATCC11778, Amphotericin B 0.1 mg, 44 hours, 10^2 cfu/mL", "value": 37}, {"measurement": "Number of colonies", "setting": "B. cereus; ATCC11778, Amphotericin B 0.1 mg, 44 hours, 10^3 cfu/mL", "value": "+"}, {"measurement": "Number of colonies", "setting": "B. cereus; ATCC11778, Amphotericin B 0.1 mg, 44 hours, 10^4 cfu/mL", "value": "+"}, {"measurement": "Number of colonies", "setting": "B. cereus; ATCC11778, Amphotericin B 0.1 mg, 44 hours, 10^5 cfu/mL", "value": "+"}, {"measurement": "Number of colonies", "setting": "B. cereus; ATCC11778, Amphotericin B 1.0 mg, 24 hours, 10^2 cfu/mL", "value": 51}, {"measurement": "Number of colonies", "setting": "B. cereus; ATCC11778, Amphotericin B 1.0 mg, 24 hours, 10^3 cfu/mL", "value": "+"}, {"measurement": "Number of colonies", "setting": "B. cereus; ATCC11778, Amphotericin B 1.0 mg, 24 hours, 10^4 cfu/mL", "value": "+"}, {"measurement": "Number of colonies", "setting": "B. cereus; ATCC11778, Amphotericin B 1.0 mg, 24 hours, 10^5 cfu/mL", "value": "+"}, {"measurement": "Number of colonies", "setting": "B. cereus; ATCC11778, Amphotericin B 1.0 mg, 44 hours, 10^2 cfu/mL", "value": 51}, {"measurement": "Number of colonies", "setting": "B. cereus; ATCC11778, Amphotericin B 1.0 mg, 44 hours, 10^3 cfu/mL", "value": "+"}, {"measurement": "Number of colonies", "setting": "B. cereus; ATCC11778, Amphotericin B 1.0 mg, 44 hours, 10^4 cfu/mL", "value": "+"}, {"measurement": "Number of colonies", "setting": "B. cereus; ATCC11778, Amphotericin B 1.0 mg, 44 hours, 10^5 cfu/mL", "value": "+"}, {"measurement": "Number of colonies", "setting": "B. cereus; ATCC11778, Amphotericin B 10 mg, 24 hours, 10^2 cfu/mL", "value": 49}, {"measurement": "Number of colonies", "setting": "B. cereus; ATCC11778, Amphotericin B 10 mg, 24 hours, 10^3 cfu/mL", "value": "+"}, {"measurement": "Number of colonies", "setting": "B. cereus; ATCC11778, Amphotericin B 10 mg, 24 hours, 10^4 cfu/mL", "value": "+"}, {"measurement": "Number of colonies", "setting": "B. cereus; ATCC11778, Amphotericin B 10 mg, 24 hours, 10^5 cfu/mL", "value": "+"}, {"measurement": "Number of colonies", "setting": "B. cereus; ATCC11778, Amphotericin B 10 mg, 44 hours, 10^2 cfu/mL", "value": 49}, {"measurement": "Number of colonies", "setting": "B. cereus; ATCC11778, Amphotericin B 10 mg, 44 hours, 10^3 cfu/mL", "value": "+"}, {"measurement": "Number of colonies", "setting": "B. cereus; ATCC11778, Amphotericin B 10 mg, 44 hours, 10^4 cfu/mL", "value": "+"}, {"measurement": "Number of colonies", "setting": "B. cereus; ATCC11778, Amphotericin B 10 mg, 44 hours, 10^5 cfu/mL", "value": "+"}, {"measurement": "Number of colonies", "setting": "B. cereus; ATCC19637, Amphotericin B 0.1 mg, 24 hours, 10^2 cfu/mL", "value": 36}, {"measurement": "Number of colonies", "setting": "B. cereus; ATCC19637, Amphotericin B 0.1 mg, 24 hours, 10^3 cfu/mL", "value": "+"}, {"measurement": "Number of colonies", "setting": "B. cereus; ATCC19637, Amphotericin B 0.1 mg, 24 hours, 10^4 cfu/mL", "value": "+"}, {"measurement": "Number of colonies", "setting": "B. cereus; ATCC19637, Amphotericin B 0.1 mg, 24 hours, 10^5 cfu/mL", "value": "+"}, {"measurement": "Number of colonies", "setting": "B. cereus; ATCC19637, Amphotericin B 0.1 mg, 44 hours, 10^2 cfu/mL", "value": 36}, {"measurement": "Number of colonies", "setting": "B. cereus; ATCC19637, Amphotericin B 0.1 mg, 44 hours, 10^3 cfu/mL", "value": "+"}, {"measurement": "Number of colonies", "setting": "B. cereus; ATCC19637, Amphotericin B 0.1 mg, 44 hours, 10^4 cfu/mL", "value": "+"}, {"measurement": "Number of colonies", "setting": "B. cereus; ATCC19637, Amphotericin B 0.1 mg, 44 hours, 10^5 cfu/mL", "value": "+"}, {"measurement": "Number of colonies", "setting": "B. cereus; ATCC19637, Amphotericin B 1.0 mg, 24 hours, 10^2 cfu/mL", "value": 35}, {"measurement": "Number of colonies", "setting": "B. cereus; ATCC19637, Amphotericin B 1.0 mg, 24 hours, 10^3 cfu/mL", "value": "+"}, {"measurement": "Number of colonies", "setting": "B. cereus; ATCC19637, Amphotericin B 1.0 mg, 24 hours, 10^4 cfu/mL", "value": "+"}, {"measurement": "Number of colonies", "setting": "B. cereus; ATCC19637, Amphotericin B 1.0 mg, 24 hours, 10^5 cfu/mL", "value": "+"}, {"measurement": "Number of colonies", "setting": "B. cereus; ATCC19637, Amphotericin B 1.0 mg, 44 hours, 10^2 cfu/mL", "value": 35}, {"measurement": "Number of colonies", "setting": "B. cereus; ATCC19637, Amphotericin B 1.0 mg, 44 hours, 10^3 cfu/mL", "value": "+"}, {"measurement": "Number of colonies", "setting": "B. cereus; ATCC19637, Amphotericin B 1.0 mg, 44 hours, 10^4 cfu/mL", "value": "+"}, {"measurement": "Number of colonies", "setting": "B. cereus; ATCC19637, Amphotericin B 1.0 mg, 44 hours, 10^5 cfu/mL", "value": "+"}, {"measurement": "Number of colonies", "setting": "B. cereus; ATCC19637, Amphotericin B 10 mg, 24 hours, 10^2 cfu/mL", "value": 39}, {"measurement": "Number of colonies", "setting": "B. cereus; ATCC19637, Amphotericin B 10 mg, 24 hours, 10^3 cfu/mL", "value": "+"}, {"measurement": "Number of colonies", "setting": "B. cereus; ATCC19637, Amphotericin B 10 mg, 24 hours, 10^4 cfu/mL", "value": "+"}, {"measurement": "Number of colonies", "setting": "B. cereus; ATCC19637, Amphotericin B 10 mg, 24 hours, 10^5 cfu/mL", "value": "+"}, {"measurement": "Number of colonies", "setting": "B. cereus; ATCC19637, Amphotericin B 10 mg, 44 hours, 10^2 cfu/mL", "value": 39}, {"measurement": "Number of colonies", "setting": "B. cereus; ATCC19637, Amphotericin B 10 mg, 44 hours, 10^3 cfu/mL", "value": "+"}, {"measurement": "Number of colonies", "setting": "B. cereus; ATCC19637, Amphotericin B 10 mg, 44 hours, 10^4 cfu/mL", "value": "+"}, {"measurement": "Number of colonies", "setting": "B. cereus; ATCC19637, Amphotericin B 10 mg, 44 hours, 10^5 cfu/mL", "value": "+"}, {"measurement": "Number of colonies", "setting": "B. thuringiensis; Amphotericin B 0.1 mg, 24 hours, 10^2 cfu/mL", "value": 28}, {"measurement": "Number of colonies", "setting": "B. thuringiensis; Amphotericin B 0.1 mg, 24 hours, 10^3 cfu/mL", "value": "+"}, {"measurement": "Number of colonies", "setting": "B. thuringiensis; Amphotericin B 0.1 mg, 24 hours, 10^4 cfu/mL", "value": "+"}, {"measurement": "Number of colonies", "setting": "B. thuringiensis; Amphotericin B 0.1 mg, 24 hours, 10^5 cfu/mL", "value": "+"}, {"measurement": "Number of colonies", "setting": "B. thuringiensis; Amphotericin B 0.1 mg, 44 hours, 10^2 cfu/mL", "value": 28}, {"measurement": "Number of colonies", "setting": "B. thuringiensis; Amphotericin B 0.1 mg, 44 hours, 10^3 cfu/mL", "value": "+"}, {"measurement": "Number of colonies", "setting": "B. thuringiensis; Amphotericin B 0.1 mg, 44 hours, 10^4 cfu/mL", "value": "+"}, {"measurement": "Number of colonies", "setting": "B. thuringiensis; Amphotericin B 0.1 mg, 44 hours, 10^5 cfu/mL", "value": "+"}, {"measurement": "Number of colonies", "setting": "B. thuringiensis; Amphotericin B 1.0 mg, 24 hours, 10^2 cfu/mL", "value": 39}, {"measurement": "Number of colonies", "setting": "B. thuringiensis; Amphotericin B 1.0 mg, 24 hours, 10^3 cfu/mL", "value": "+"}, {"measurement": "Number of colonies", "setting": "B. thuringiensis; Amphotericin B 1.0 mg, 24 hours, 10^4 cfu/mL", "value": "+"}, {"measurement": "Number of colonies", "setting": "B. thuringiensis; Amphotericin B 1.0 mg, 24 hours, 10^5 cfu/mL", "value": "+"}, {"measurement": "Number of colonies", "setting": "B. thuringiensis; Amphotericin B 1.0 mg, 44 hours, 10^2 cfu/mL", "value": 39}, {"measurement": "Number of colonies", "setting": "B. thuringiensis; Amphotericin B 1.0 mg, 44 hours, 10^3 cfu/mL", "value": "+"}, {"measurement": "Number of colonies", "setting": "B. thuringiensis; Amphotericin B 1.0 mg, 44 hours, 10^4 cfu/mL", "value": "+"}, {"measurement": "Number of colonies", "setting": "B. thuringiensis; Amphotericin B 1.0 mg, 44 hours, 10^5 cfu/mL", "value": "+"}, {"measurement": "Number of colonies", "setting": "B. thuringiensis; Amphotericin B 10 mg, 24 hours, 10^2 cfu/mL", "value": 38}, {"measurement": "Number of colonies", "setting": "B. thuringiensis; Amphotericin B 10 mg, 24 hours, 10^3 cfu/mL", "value": "+"}, {"measurement": "Number of colonies", "setting": "B. thuringiensis; Amphotericin B 10 mg, 24 hours, 10^4 cfu/mL", "value": "+"}, {"measurement": "Number of colonies", "setting": "B. thuringiensis; Amphotericin B 10 mg, 24 hours, 10^5 cfu/mL", "value": "+"}, {"measurement": "Number of colonies", "setting": "B. thuringiensis; Amphotericin B 10 mg, 44 hours, 10^2 cfu/mL", "value": 38}, {"measurement": "Number of colonies", "setting": "B. thuringiensis; Amphotericin B 10 mg, 44 hours, 10^3 cfu/mL", "value": "+"}, {"measurement": "Number of colonies", "setting": "B. thuringiensis; Amphotericin B 10 mg, 44 hours, 10^4 cfu/mL", "value": "+"}, {"measurement": "Number of colonies", "setting": "B. thuringiensis; Amphotericin B 10 mg, 44 hours, 10^5 cfu/mL", "value": "+"}]}]}
